Measurements from patent US9365604B2, “Oligomer-nucleoside phosphate conjugates” (NEKTAR THERAPEUTICS, priority 2007, dated 2016).
Where two headings read alike, the source gives them in different places.

Key:
Caco-2 cells [1] = tested on: Caco-2 cells
Excerpt: (§5) Bi-Directional Permeability of PEG-Floxuridine Conjugates in Caco-2 and MDCK Cells

NCI-H460 = assay: In vitro cytotoxicity assay (CellTiter-Glo); type: cell-based; settings: Homo sapiens, 72 h exposure, CellTiter-Glo
Method: (§1) The objective of these studies was to determine the IC50 values for PEG-gemcitabine conjugates against gemcitabine-resistant cell lines based on data from previous Xenograft studies. The cells were exposed for 72 h, and cell viability assessed by using the CellTiter-Glo assay.

RL = assay: In vitro cytotoxicity assay (CellTiter-Glo); type: cell-based; settings: Homo sapiens, 72 h exposure, CellTiter-Glo
Method: as §1

HL-60 = assay: In vitro cytotoxicity assay (CellTiter-Glo); type: cell-based; settings: Homo sapiens, 72 h exposure, CellTiter-Glo
Method: as §1

NCI-H522 = assay: In vitro cytotoxicity assay (CellTiter-Glo); type: cell-based; settings: Homo sapiens, 72 h exposure, CellTiter-Glo
Method: as §1

K-562 = assay: In vitro cytotoxicity assay (CellTiter-Glo); type: cell-based; settings: Homo sapiens, K562, 72 h exposure, CellTiter-Glo
Method: as §1

NCI-H23 = assay: In vitro cytotoxicity assay (CellTiter-Glo); type: cell-based; settings: Homo sapiens, 72 h exposure, CellTiter-Glo
Method: as §1

DLD-1 = assay: In vitro cytotoxicity assay (CellTiter-Glo); type: cell-based; settings: Homo sapiens, 72 h exposure, CellTiter-Glo
Method: as §1

SW-620 = assay: In vitro cytotoxicity assay (CellTiter-Glo); type: cell-based; settings: Homo sapiens, 72 h exposure, CellTiter-Glo
Method: as §1

AS283 = assay: In vitro cytotoxicity assay (CellTiter-Glo); type: cell-based; settings: 72 h exposure, CellTiter-Glo
Method: as §1

CCRF-CEM = assay: In vitro cytotoxicity assay (CellTiter-Glo); type: cell-based; settings: Homo sapiens, 72 h exposure, CellTiter-Glo
Method: as §1

Caco-2 cells [2] = assay: Bi-directional permeability in Caco-2 cells
Excerpt: as §5

[3] = Bi-directional permeability in Caco-2 cells; settings: human
Excerpt: as §5

MDCK cells [4] = assay: Bi-directional permeability in MDCK cells
Excerpt: as §5

[5] = Bi-directional permeability in MDCK cells; settings: dog
Excerpt: as §5

PANC-1 [6] = assay: In vitro cytotoxicity assay (CellTiter-Glo); type: cell-based; settings: Homo sapiens, 72 h exposure
Method: as §1
The PEG-gemcitabine derivatives and gemcitabine inhibited the growth of most of the cell lines with IC50 values from the nM to low μM range, except for PANC-1 cells. Like the previous study, some of the IC50 values should be interpreted carefully because the concentration range tested was not centered around the IC50. […] The PANC-1 pancreatic cell line, in contrast to BxPC-3, Capan-1, or MIA-PaCa-2, has been shown previously to be resistant in vitro to gemcitabine, and 4′-thio-FAC, a deoxycytidine sulfur- and fluoro-substituted analog (Zajchowski et al., (2005). Int J Cancer. 114(6), 1002-9).

HT-29 = assay: In vitro cytotoxicity assay (CellTiter-Glo); type: cell-based; settings: Homo sapiens, 72 h exposure, CellTiter-Glo
Method: (§2) The objective of these studies were to determine the IC50 values for PEG-floxuridine conjugates against floxuridine-resistant cell lines based on data from previous Xenograft studies. The cells were exposed for 72 h, and cell viability assessed by using the CellTiter-Glo assay.
as §1

MIA PaCa-2 = assay: In vitro cytotoxicity assay (CellTiter-Glo); type: cell-based; settings: Homo sapiens, 72 h exposure, CellTiter-Glo
Method: as §2, §1

HCT-116 = assay: In vitro cytotoxicity assay (CellTiter-Glo); type: cell-based; settings: Homo sapiens, 72 h exposure, CellTiter-Glo
Method: as §2, §1

in vitro = settings: human
Method: Cells were inoculated into 24-well microtiter plates in 100 μL at 5×10^3 cells/well, in duplicate. After 24 h, test articles were added to the cells for 24 or 48 h, after which time the supernatant from each of the wells was collected and stored below −15° C. until LC/MS analysis.

MCF7 = assay: Sulforhodamine B (SRB) growth inhibition assay; type: cell-based, Human; settings: Homo sapiens
Method: (§3) In Vitro Screening of PEG-Gemcitabine Monophosphate in Selected Human Cancer Cell Lines
(§4) The aim was to determine the GI50 values for PEG-floxuridine conjugates against a panel of cell lines, and based on previous data from Xenograft studies. […] The test articles were solubilized in dimethylsulfoxide and were tested at four different molar (M) concentrations; 10^−4, 10^−5, 10^−6, M. GI50 (the concentration needed to reduce the growth of treated cells to half that of untreated control cells) was calculated for each condition ([(Ti−Tz)/(C-Tz)]×100=50, where Ti, Tz, and C refer to absorbance values obtained from each tested concentration, time zero, and control treatment, respectively).
as §4, with “The objective” for “The aim”, “the IC50” for “the GI50”, “for PEG-gemcitabine” for “for PEG-floxuridine”, “in dimethyl sulfoxide” for “in dimethylsulfoxide”, “10^−6, 10^−7” for “10^−6,”, “condition ([(Ti−Tz)/(C−Tz)]×100=50,” for “condition ([(Ti−Tz)/(C-Tz)]×100=50,”

HCT15 = assay: Sulforhodamine B (SRB) growth inhibition assay; type: cell-based, Human; settings: Homo sapiens, HCT-15, SRB assay
Method: as §3, §4
as §4, with “The objective” for “The aim”, “the IC50” for “the GI50”, “for PEG-gemcitabine” for “for PEG-floxuridine”, “in dimethyl sulfoxide” for “in dimethylsulfoxide”, “10^−6, 10^−7” for “10^−6,”, “condition ([(Ti−Tz)/(C−Tz)]×100=50,” for “condition ([(Ti−Tz)/(C-Tz)]×100=50,”

Hop62 = assay: Sulforhodamine B (SRB) growth inhibition assay; type: cell-based, Human; settings: Homo sapiens, HOP-62, SRB assay
Method: as §3, §4
as §4, with “The objective” for “The aim”, “the IC50” for “the GI50”, “for PEG-gemcitabine” for “for PEG-floxuridine”, “in dimethyl sulfoxide” for “in dimethylsulfoxide”, “10^−6, 10^−7” for “10^−6,”, “condition ([(Ti−Tz)/(C−Tz)]×100=50,” for “condition ([(Ti−Tz)/(C-Tz)]×100=50,”

COLO205 = assay: Sulforhodamine B (SRB) growth inhibition assay; type: cell-based, Human; settings: Homo sapiens, COLO 205, COLO205, SRB assay
Method: as §3, §4
as §4, with “The objective” for “The aim”, “the IC50” for “the GI50”, “for PEG-gemcitabine” for “for PEG-floxuridine”, “in dimethyl sulfoxide” for “in dimethylsulfoxide”, “10^−6, 10^−7” for “10^−6,”, “condition ([(Ti−Tz)/(C−Tz)]×100=50,” for “condition ([(Ti−Tz)/(C-Tz)]×100=50,”

HT29 = assay: Sulforhodamine B (SRB) growth inhibition assay; type: cell-based, Human; settings: Homo sapiens, HT-29, SRB assay
Method: as §3, §4
as §4, with “The objective” for “The aim”, “the IC50” for “the GI50”, “for PEG-gemcitabine” for “for PEG-floxuridine”, “in dimethyl sulfoxide” for “in dimethylsulfoxide”, “10^−6, 10^−7” for “10^−6,”, “condition ([(Ti−Tz)/(C−Tz)]×100=50,” for “condition ([(Ti−Tz)/(C-Tz)]×100=50,”

A2780 = assay: Sulforhodamine B (SRB) growth inhibition assay; type: cell-based, Human; settings: Homo sapiens, SRB assay
Method: as §3, §4
as §4, with “The objective” for “The aim”, “the IC50” for “the GI50”, “for PEG-gemcitabine” for “for PEG-floxuridine”, “in dimethyl sulfoxide” for “in dimethylsulfoxide”, “10^−6, 10^−7” for “10^−6,”, “condition ([(Ti−Tz)/(C−Tz)]×100=50,” for “condition ([(Ti−Tz)/(C-Tz)]×100=50,”

DU145 = assay: Sulforhodamine B (SRB) growth inhibition assay; type: cell-based, Human; settings: Homo sapiens, DU-145, SRB assay, cells exposed for 24 h, read-out: GI50 values (μM) DU145
Method: as §4
as §4, with “The objective” for “The aim”, “the IC50” for “the GI50”, “for PEG-gemcitabine” for “for PEG-floxuridine”, “in dimethyl sulfoxide” for “in dimethylsulfoxide”, “10^−6, 10^−7” for “10^−6,”, “condition ([(Ti−Tz)/(C−Tz)]×100=50,” for “condition ([(Ti−Tz)/(C-Tz)]×100=50,”

PANC-1 [7] = settings: Zajchowski et al. 2005; cited from earlier work
MDCK cells [8] = tested on: MDCK cells
Excerpt: as §5

CAKI-1 = assay: In vitro cytotoxicity assay (CellTiter-Glo); type: cell-based; settings: Homo sapiens, 72 h exposure, CellTiter-Glo

## Nc1ccn([C@@H]2O[C@H](CO)[C@@H](O)C2(F)F)c(=O)n1 [Gemcitabine, reference compound]
Caco-2 cells [1]
  Significant efflux: No
NCI-H460
  IC50: 14 nM
RL
  IC50: 281 nM
HL-60
  IC50: 1.7 nM
NCI-H522
  IC50: 4.4 nM
K-562
  IC50: 697 nM
NCI-H23
  IC50: 6.9 nM
DLD-1
  IC50: 22 nM
SW-620
  IC50: 49 nM
AS283
  IC50: 124 nM
CCRF-CEM
  IC50: 7 nM
Caco-2 cells [2]
  permeability across Caco-2 monolayers (in words): poor permeability
[3]
  Papp A→B: 0.3 ×10⁻⁶ cm/s
  Papp B→A: 0.42 ×10⁻⁶ cm/s
  efflux ratio: 1.4
[3]; Caco-2, percent recovery A -> B
  recovery: 90%
[3]; Caco-2, percent recovery B -> A
  recovery: 89%
MDCK cells [4]
  permeability through MDCK monolayers (in words): poor permeability
[5]
  Papp A→B: 0.17 ×10⁻⁶ cm/s
  Papp B→A: 0.12 ×10⁻⁶ cm/s
  efflux ratio: 0.7
[5]; percent recovery A -> B
  recovery: 96%
[5]; percent recovery B -> A
  recovery: 95%
PANC-1 [6]
  IC50: > 1e+06 nM
HT-29
  IC50: 111 nM
MIA PaCa-2
  IC50: 26 nM
HCT-116
  IC50: 1.9 nM
In vitro
  recovery: 100 to 110%
MCF7; MCF-7 cell line, read-out: GI50 (MCF-7 moderately sensitive)
  GI50: ~0.1 µM
MCF7; SRB assay, 48 h drug exposure, read-out: GI50 (molar concentration) in Cell Line MCF7
  GI50: < 0.1 µM
MCF7; SRB assay, cells exposed for 24 h, read-out: GI50 values (μM) MCF7
  GI50: < 0.1 µM
HCT15; 48 h drug exposure, read-out: GI50 (molar concentration) in Cell Line HCT15
  GI50: 0.16 µM
HCT15; cells exposed for 24 h, read-out: GI50 values (μM) HCT15
  GI50: 0.16 µM
Hop62; 48 h drug exposure, read-out: GI50 (molar concentration) in Cell Line Hop62
  GI50: 1.8 µM
Hop62; cells exposed for 24 h, read-out: GI50 values (μM) Hop62
  GI50: 1.8 µM
COLO205; 48 h drug exposure, read-out: GI50 (molar concentration) in Cell Line COLO205
  GI50: 0.14 µM
COLO205; cells exposed for 24 h, read-out: GI50 values (μM) COLO205
  GI50: 0.14 µM
HT29; 48 h drug exposure, read-out: GI50 (molar concentration) in Cell Line HT29
  GI50: 2.1 µM
HT29; cells exposed for 24 h, read-out: GI50 values (μM) HT29
  GI50: 2.1 µM
A2780; 48 h drug exposure, read-out: GI50 (molar concentration) in Cell Line A2780
  GI50: < 0.1 µM
A2780; cells exposed for 24 h, read-out: GI50 values (μM) A2780
  GI50: < 0.1 µM
DU145
  GI50: < 0.1 µM
PANC-1 [7]
  resistance of PANC-1 in vitro (shown previously): resistant
MDCK cells [8]
  Significant efflux: No
CAKI-1
  IC50: 8.3 nM
